The experiment deals with L1210 leukemia ip in BDF1 mice, survival T/C. Kind of experiment: NCI In Vivo Anticancer Drug Screen. Data for tumor model L1210 Leukemia (intraperitoneal) in B6D2F1 (BDF1) mice. The following applies: endpoint: mean survival time, higher = longer survival. In short, it runs like this: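 Each compound was tested against a transplantable tumor grown in mice. The endpoint was survival, with treated animals benchmarked against vehicle controls as a simple ratio.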

[1] abbreviates: dose: 100.0 mg/kg/injection, schedule: Q01DX009 (ip), vehicle: saline with Tween-80.
Setting [2] is: dose: 200.0 mg/kg/injection, schedule: Q01DX009 (ip), vehicle: saline with Tween-80.
Where [3] appears, read: dose: 400.0 mg/kg/injection, schedule: Q01DX009 (ip), vehicle: saline with Tween-80.
[4] abbreviates: dose: 100.0 mg/kg/injection, schedule: Q01DX009 (ip), vehicle: Klucel (hydroxypropylcellulose) (HPC).
Where [5] appears, read: dose: 100.0 mg/kg/injection, schedule: Q04DX003 (ip), vehicle: Klucel (hydroxypropylcellulose) (HPC).
[6] abbreviates: dose: 200.0 mg/kg/injection, schedule: Q01DX009 (ip), vehicle: Klucel (hydroxypropylcellulose) (HPC).
[7] abbreviates: dose: 200.0 mg/kg/injection, schedule: Q04DX003 (ip), vehicle: Klucel (hydroxypropylcellulose) (HPC).
The mark [8] stands for this setting: dose: 400.0 mg/kg/injection, schedule: Q01DX009 (ip), vehicle: Klucel (hydroxypropylcellulose) (HPC).
[9] abbreviates: dose: 400.0 mg/kg/injection, schedule: Q04DX003 (ip), vehicle: Klucel (hydroxypropylcellulose) (HPC).
Setting [10] is: dose: 100.0 mg/kg/injection, schedule: Q01DX001 (ip), vehicle: carboxymethylcellulose (CMC).
The mark [11] stands for this setting: dose: 200.0 mg/kg/injection, schedule: Q01DX001 (ip), vehicle: carboxymethylcellulose (CMC).
[12] abbreviates: dose: 400.0 mg/kg/injection, schedule: Q01DX001 (ip), vehicle: carboxymethylcellulose (CMC).
Where [13] appears, read: dose: 100.0 mg/kg/injection, schedule: Q04DX003 (ip), vehicle: saline with Tween-80.
Setting [14] is: dose: 200.0 mg/kg/injection, schedule: Q04DX003 (ip), vehicle: saline with Tween-80.
Setting [15] is: dose: 400.0 mg/kg/injection, schedule: Q04DX003 (ip), vehicle: saline with Tween-80.

Values joined by “and” are separate entries in the source; they are usually repeats but may differ in a detail not shown here. Identical values can stand only once. Inconclusive results and toxic doses are left out.

Regarding `CCCC(C)C1(CC)C(=O)NC(=O)NC1=O` (stereo unspecified), the T/C (dose: 20.0 mg/kg/injection, schedule: Q01DX001 (ip), vehicle: saline) was 97 % of control; the T/C (dose: 20.0 mg/kg/injection, schedule: Q04DX003 (ip), vehicle: saline) was 93 % of control; the T/C (dose: 40.0 mg/kg/injection, schedule: Q01DX001 (ip), vehicle: saline) was 103 % of control; the T/C (dose: 40.0 mg/kg/injection, schedule: Q04DX003 (ip), vehicle: saline) was 98 % of control; the T/C (dose: 75.0 mg/kg/injection, schedule: Q01DX001 (ip), vehicle: saline) was 107 % of control; the T/C (dose: 80.0 mg/kg/injection, schedule: Q01DX001 (ip), vehicle: saline) is 108 % of control. Also, the T/C runs as follows: (dose: 80.0 mg/kg/injection, schedule: Q04DX003 (ip), vehicle: saline) 97 % of control; (dose: 160.0 mg/kg/injection, schedule: Q01DX001 (ip), vehicle: saline) 108 % of control.

Regarding `N#CC1(C#N)CC=CCC1(C#N)C#N`, the T/C runs as follows: (dose: 12.5 mg/kg/injection, schedule: Q01DX009 (ip), vehicle: other) 92 % of control; (dose: 25.0 mg/kg/injection, schedule: Q01DX009 (ip), vehicle: other) 87 % of control.

As for `O=c1c2ccccc2[nH]c2c([N+](=O)[O-])cccc12`, the T/C runs as follows: under setting [1], 100 % of control; under setting [2], 99 % of control; under setting [3], 87 % of control.

With `CCN(N=Nc1ccc(C)cc1)N=Nc1ccc(C)cc1`, the T/C by setting is: under setting [4], 93 % of control; under setting [5], 100 % of control; under setting [6], 88 % of control; under setting [7], 100 % of control; under setting [8], 88 % of control; under setting [9], 93 % of control.

Regarding `BrC1CC2CCCCC2CC1Br` (stereo unspecified), the T/C is, setting by setting: under setting [10], 98 % of control; under setting [11], 101 % of control; under setting [12], 101 % of control.

For `COc1cc(N=Cc2ccc([N+](=O)[O-])cc2)c2ncccc2c1`, the T/C is, setting by setting: under setting [10], 101 % of control; under setting [11], 94 % of control; under setting [12], 92 % of control.

As to `Cc1cccc(C)[n+]1CC(=O)CCCCCCC(=O)C[n+]1c(C)cccc1C`, the T/C reads like this: (dose: 0.25 mg/kg/injection, schedule: Q04DX003 (ip), vehicle: saline) 98 % of control; (dose: 0.5 mg/kg/injection, schedule: Q04DX003 (ip), vehicle: saline) 105 % of control; (dose: 1.0 mg/kg/injection, schedule: Q04DX003 (ip), vehicle: saline) 101 % of control.

On to `CCS(=O)(=O)Nc1ccc(Nc2c3ccccc3nc3ccccc23)c(OC)c1`, for which the T/C is 152 % of control (dose: 2.5 mg/kg/injection, schedule: Q01DX009 (ip), vehicle: Klucel (hydroxypropylcellulose) (HPC)); 168 % of control (dose: 5.0 mg/kg/injection, schedule: Q01DX009 (ip), vehicle: Klucel (hydroxypropylcellulose) (HPC)); 155 % of control (dose: 5.0 mg/kg/injection, schedule: Q01DX009 (ip), vehicle: saline); 163 % of control (dose: 10.0 mg/kg/injection, schedule: Q01DX009 (ip), vehicle: Klucel (hydroxypropylcellulose) (HPC)); 216 % of control (dose: 10.0 mg/kg/injection, schedule: Q01DX009 (ip), vehicle: saline); 86 % of control (dose: 20.0 mg/kg/injection, schedule: Q01DX009 (ip), vehicle: Klucel (hydroxypropylcellulose) (HPC)).

`Cc1cc(Cl)ccc1OC(=O)Nc1ccccc1F`: the T/C reads like this: under setting [4], 110 % of control; under setting [6], 98 % of control; under setting [8], 121 % of control.

Take `CCOC(=O)C1CC(C(=O)OCC)c2nc3ccccc3nc21` (stereo unspecified): the T/C is 88 % of control (dose: 50.0 mg/kg/injection, schedule: Q01DX001 (ip), vehicle: other); 92 % of control and 86 % of control (dose: 100.0 mg/kg/injection, schedule: Q01DX001 (ip), vehicle: other); 89 % of control (dose: 200.0 mg/kg/injection, schedule: Q01DX001 (ip), vehicle: other); 92 % of control (dose: 400.0 mg/kg/injection, schedule: Q01DX001 (ip), vehicle: other).

`Cc1cc(N(C)C)ccc1N=Nc1ccccc1`: the T/C runs as follows: (dose: 50.0 mg/kg/injection, schedule: Q01DX001 (ip), vehicle: carboxymethylcellulose (CMC)) 102 % of control; under setting [10], 102 % of control; under setting [11], 107 % of control; under setting [12], 96 % of control.

`CC(O)C(=O)N(O)c1ccccc1OCc1ccccc1` (stereo unspecified): the T/C was 104 % of control (dose: 75.0 mg/kg/injection, schedule: Q01DX001 (ip), vehicle: acetone); 102 % of control (dose: 75.0 mg/kg/injection, schedule: Q04DX003 (ip), vehicle: acetone); 91 % of control (dose: 150.0 mg/kg/injection, schedule: Q01DX001 (ip), vehicle: acetone); 98 % of control (dose: 150.0 mg/kg/injection, schedule: Q04DX003 (ip), vehicle: acetone); 89 % of control (dose: 300.0 mg/kg/injection, schedule: Q01DX001 (ip), vehicle: acetone); 96 % of control (dose: 300.0 mg/kg/injection, schedule: Q04DX003 (ip), vehicle: acetone).

Consider `CN1CCN=C1c1ccc(NC(=O)c2ccc(C(=O)Nc3ccc(C4=NCCN4C)cc3)c([N+](=O)[O-])c2)cc1`, for which the T/C was 96 % of control (dose: 1.5 mg/kg/injection, schedule: Q01DX Z (ip), vehicle: carboxymethylcellulose (CMC)); 101 % of control (dose: 3.0 mg/kg/injection, schedule: Q01DX Z (ip), vehicle: carboxymethylcellulose (CMC)); 90 % of control (dose: 6.0 mg/kg/injection, schedule: Q01DX Z (ip), vehicle: carboxymethylcellulose (CMC)).

In the case of `c1ccc2c(c1)ccc1c3ccccc3[nH]c21`, the T/C is 93 % of control under setting [13], 105 % of control under setting [14] and 96 % of control under setting [15].

For `O=c1cc[nH]c2ccc(Cl)cc12`, the T/C was 117 % of control (dose: 50.0 mg/kg/injection, schedule: Q01DX001 (ip), vehicle: saline) and 102 % of control (dose: 100.0 mg/kg/injection, schedule: Q01DX001 (ip), vehicle: saline).

As to `COC(=O)/C=C/c1ccc(OC)cc1`, the T/C reads like this: (dose: 50.0 mg/kg/injection, schedule: Q01DX009 (ip), vehicle: Klucel (hydroxypropylcellulose) (HPC)) 103 % of control; under setting [4], 102 % of control; under setting [5], 96 % of control; under setting [6], 103 % of control; under setting [7], 100 % of control; under setting [9], 88 % of control.

Take `CC(=O)SCCC(=O)NCNC(=O)CCSC(C)=O`: the T/C is, setting by setting: under setting [1], 96 % of control; under setting [13], 93 % of control; under setting [2], 96 % of control; under setting [14], 93 % of control; under setting [3], 100 % of control; under setting [15], 92 % of control.

Source of the values: PubChem BioAssay AID248 (DTP/NCI, 2004).
